In ChEMBL document CHEMBL3091287, “The ameliorating effects of 2,3-dihydroxy-4-methoxyacetophenone on scopolamine-induced memory impairment in mice and its neuroprotective activity” (Bioorg Med Chem Lett, 2013):
The source made the active and inactive calls. The rule behind the calls is not given here.

Experiments:
[1] = Antioxidant activity assessed as hydrogen peroxide radical scavenging activity; type: functional
[2] = test system: Radical scavenging activity; assay: Antioxidant activity assessed as DPPH radical scavenging activity after 30 mins; type: functional
Mus musculus [3] = assay: Cognitive-enhancing effect in ICR mouse assessed as reduction of scopolamine-induced escape latency at 40 mg/kg, po administered 1 hr before scopolamine challenge measured on day 3 during trial 1 and 2 by Morris water maze test; type: functional, organism-based; parameters: dose 40 mg/kg
HT-22 [4] = assay: Neuroprotective activity in mouse HT22 cells assessed as inhibition of glutamate-induced cell death after 24 hrs by MTT assay; type: functional, cell-based
Mus musculus [5] = assay: Cognitive-enhancing effect in ICR mouse assessed as reduction of scopolamine-induced increase in mean distance to platform at 1 to 50 mg/kg, po administered 1 hr before scopolamine challenge measured on day 4 by Morris water maze test; type: functional, organism-based
Mus musculus [6] = assay: Cognitive-enhancing effect in ICR mouse assessed as reduction of scopolamine-induced escape latency at 1 to 20 mg/kg, po administered 1 hr before scopolamine challenge measured on day 3 during trial 1 and 2 by Morris water maze test; type: functional, organism-based
Mus musculus [7] = assay: Toxicity in ICR mouse assessed as motor ability by measuring reduction of scopolamine-induced swimming speed at 1 to 50 mg/kg, po administered 1 hr before scopolamine challenge measured on day 4 by Morris water maze test; type: organism-based; parameters: dose 1-50 mg/kg, route oral; details: in vivo
Mus musculus [8] = assay: Cognitive-enhancing effect in ICR mouse assessed as reduction of scopolamine-induced escape latency at 50 mg/kg, po administered 1 hr before scopolamine challenge measured on day 2 to 4 during trial 1 and 2 by Morris water maze test; type: functional, organism-based; parameters: dose 50 mg/kg
HT-22 [9] = assay: Neuroprotective activity in mouse HT22 cells assessed as inhibition of glutamate-induced increase of intracellular calcium level at 10 to 100 uM after 2 hrs by Fura-2 AM assay; type: functional, cell-based
Mus musculus [10] = assay: Cognitive-enhancing effect in ICR mouse assessed as reduction of scopolamine-induced escape latency at 1 to 20 mg/kg, po administered 1 hr before scopolamine challenge measured on day 4 during trial 1 and 2 by Morris water maze test; type: functional, organism-based
HT-22 [11] = assay: Neuroprotective activity in mouse HT22 cells assessed as inhibition of glutamate-induced cell death at 10 uM after 24 hrs by MTT assay; type: functional; details: HT-22, 24 h

Row | IC50 [1] [µM] | IC50 [2] [µM] | SMILES | Activity (Mus musculus [3]) | inhibition (HT-22 [4]) | EC50 (HT-22 [4]; HT-22, 24 h) [µM] | Activity (Mus musculus [5]) | inhibition [1] | Activity (Mus musculus [6]) | Activity (Mus musculus [7]) | Activity (Mus musculus [8]) | inhibition (HT-22 [9]) | inhibition [2] | Activity (Mus musculus [10]) | inhibition at 10 µM (HT-22 [11]) [%]
1 | 76.8 | 35.2 | O=C1O[C@H]([C@@H](O)CO)C(O)=C1O [ASCORBIC ACID] | – | – | – | – | – | – | – | – | – | – | – | –
2 | 90.8 | 98.1 | COc1ccc(C(C)=O)c(O)c1O | Active | Dose-dependent effect | 10.9 | Active | Dose-dependent effect | inactive | Non-toxic | Active | Active | Dose-dependent effect | Active | 50
